≈ marks a conversion by molar mass, not a printed value. Where “and” joins values, the source holds several entries; their conditions need not be identical. Equal entries are not always repeated. Where two headings read alike, the source gives them in different places.
How the values were obtained:
SARS-CoV-2 = test: Virus neutralization (VN) assay, scoring of SARS-CoV-2 cytopathic effects (CPE) in Vero E6 cells; assay type: cell-based

For O=C1CN(/N=C/c2ccc(-c3ccc([N+](=O)[O-])cc3)o2)C(O)=N1 [dantrolene], the “cell growth at Day 6” value (Vero E6 cells; 50 μM dilution, Day 6 post-infection, decreased compared to lower dilutions) was “rebound cell growth”, the “cytopathic effects at highest concentrations” value (Vero E6 cells; 50 and 100 μM, Days 2 and 4, both infected cells and uninfected controls) was “showed cytopathic effects” and the Cytotoxic effects (Vero E6 cells; African green monkey) was “Cytotoxic effects were only observed at the 2 highest dantrolene concentrations”. The “cell viability of uninfected Vero E6 cells” value (Vero E6 cells; lower dilutions (<50 μM dantrolene), uninfected) was “good cell viability”, the CPE (SARS-CoV-2) was “no CPE was observed” and the “Day 2 Read (CPE)” value (SARS-CoV-2) was 3/3 wells had No CPE and 3/3 walls n34 > 90% CPE. The “Day 4 Read (CPE)” value (SARS-CoV-2) was 3/3 wells had No CPE and 2/3 wells had > J0% CPE and 1/3 wells had > 90% CPE and 3/3 wells had > 90% CPE, the “Day 6 Read (CPE)” value (SARS-CoV-2) was 3/3 wells had No CPE and 2/3 wells had > 90% CPE and 1/3 wells had > 90% CPE and 3/3 wells had > 90% CPE and the “Day 2 Read (CPE)” value (SARS-CoV-2; 50 μM dantrolene, Day 2) was 3/3 wells had sparse. For the same molecule, the “Day 4 Read (CPE)” value (SARS-CoV-2; 50 μM dantrolene, Day 4) was 3/3 wells had sparse, the “Day 6 Read (CPE)” value (SARS-CoV-2; 50 μM dantrolene, Day 6, cell wraps on: 'confluency but greater than Day 4') was 3/3 wells had sparse and the “cytopathic effects (virus growth)” value (SARS-CoV-2; 20 and 40 μM dantrolene, all timepoints) was “No cytopathic effects”. For the same molecule, the MIC (SARS-CoV-2; Severe acute respiratory syndrome coronavirus 2, 144 h, SARS-CoV-2 in Vero E6 cells, no CPE across all time points (6 days), read-out: minimum inhibitory concentration) was 20 µM (≈ 6.29 µg/mL) and the anti-viral activity (SARS-CoV-2; lower concentrations of 10 and 5 μM) was “also showed anti-viral activity”.
